# Reference: patent publication US20210130401A1, “PEPTIDOMIMETIC INHIBITORS OF THE WDR5-MLL INTERACTION” (THE REGENTS OF THE UNIVERSITY OF MICHIGAN, priority 2017, published 2021)
# pIC50: −log10 of the molar value. Starred links: 1 amine or outer side, 2 acyl side, 3 side chain; linkers in the order of their positions; H or OH if unused. Positions of bridges follow the written chain, without caps; N, C: chain ends. Non-standard residues stand in square brackets, D forms with d. Residues, ends and D or L forms follow the SMILES beside them. *: point of attachment. Arg(Nω,Nω'-propylene) = N[C@@H](CCCNC1=NCCCN1)C(=O)O; Arg(NO2) = N=C(NCCC[C@H](N)C(=O)O)N[N+](=O)[O-]; dαMeDab = C[C@](CCN[*:3])(N[*:1])C(=O)[*:2]; Arg(Me2a) = CN(C)C(=N)NCCC[C@H](N)C(=O)O; Arg(ω-nPr) = CCCNC(=N)NCCC[C@H](N)C(=O)O; dPhe(3-F) = N[C@H](Cc1cccc(F)c1)C(=O)O; dPhe(4-F) = N[C@H](Cc1ccc(F)cc1)C(=O)O; d1Nal = N[C@H](Cc1cccc2ccccc12)C(=O)O; Arg(Et) = CCNC(=N)NCCC[C@H](N)C(=O)O; dGly(cPent) = N[C@@H](C(=O)O)C1CCCC1; dPhe(2-F) = N[C@H](Cc1ccccc1F)C(=O)O; dCha = N[C@H](CC1CCCCC1)C(=O)O; dChg = N[C@@H](C(=O)O)C1CCCCC1; Isobutyryl = CC(C)C(=O)*; Abu = CC[C@H](N)C(=O)O
# Tested on: MOLM-13 leukemia cells carrying MLL-AF9 fusion
# Assay: cell viability assay (WST-8), MOLM-13
# Type: cell-based
# Settings: Homo sapiens, MOLM-13, 96 h, read-out: MOLM-13 IC50 (μM)
# Protocol: To assess cell viability, MOLM-13 leukemia cells carrying MLL-AF9 fusion, MV4;11 leukemia cells carrying MLL-AF4 fusion or HL-60 leukemia cells carrying no MLL fusion were seeded 1×10^4 cell/well in 96-well plates and treated with an inhibitor for 4 days at different concentrations, in culture media containing 0.2% DMSO as the final concentration. Cell viability was determined using the WST-8 cell proliferation assay kit (Dojindo Molecular Technologies) according to manufacturer's instructions. Three independent experiments in triplicates were performed.
row,SMILES,IC50 [µM]
1,"CC[C@@H]1NC(=O)[C@H](CCCNC(=N)NC#N)NC(=O)[C@](C)(NC(=O)C(C)C)CCNC(=O)[C@@H](CC2CCCCC2)NC1=O [Cpd. No. 33, N-((3R,6S,9S,12R)-9-(3-(3-cyanoguanidino)propyl)-3-(cyclohexylmethyl)-6-ethyl-12-methyl-2,5,8,11-tetraoxo-1,4,7,10-tetraazacyclotetradecan-12-yl)isobutyramide]",6.5
2,"CC[C@@H]1NC(=O)[C@H](CCCNC(=N)NN)NC(=O)[C@](C)(NC(=O)C(C)C)CCNC(=O)[C@@H](CC2CCCCC2)NC1=O [Cpd. No. 34, N-((3R,6S,9S,12R)-3-(cyclohexylmethyl)-6-ethyl-9-(3-(hydrazinecarboximidamido)propyl)-12-methyl-2,5,8,11-tetraoxo-1,4,7,10-tetraazacyclotetradecan-12-yl)isobutyramide]",> 10
3,"CC[C@@H]1NC(=O)[C@H](CCCNC(=N)NC(=N)N)NC(=O)[C@](C)(NC(=O)C(C)C)CCNC(=O)[C@@H](CC2CCCCC2)NC1=O [Cpd. No. 35, N-((3R,6S,9S,12R)-9-(3-(3-carbamimidoylguanidino)propyl)-3-(cyclohexylmethyl)-6-ethyl-12-methyl-2,5,8,11-tetraoxo-1,4,7,10-tetraazacyclotetradecan-12-yl)isobutyramide]",> 10
4,"CC[C@@H]1NC(=O)[C@H](CCCNC(=N)N(C)C)NC(=O)[C@](C)(NC(=O)C(C)C)CCNC(=O)[C@@H](CC2CCCCC2)NC1=O [Cpd. No. 36, N-((3R,6S,9S,12R)-3-(cyclohexylmethyl)-9-(3-(3,3-dimethylguanidino)propyl)-6-ethyl-12-methyl-2,5,8,11-tetraoxo-1,4,7,10-tetraazacyclotetradecan-12-yl)isobutyramide] (Isobutyryl-[dαMeDab][Arg(Me2a)][Abu][dCha]; lactam 1-C)",> 10
5,"CC[C@@H]1NC(=O)[C@H](CCCNC2=NCCCN2)NC(=O)[C@](C)(NC(=O)C(C)C)CCNC(=O)[C@@H](CC2CCCCC2)NC1=O [Cpd. No. 40, N-((3R,6S,9S,12R)-3-(cyclohexylmethyl)-6-ethyl-12-methyl-2,5,8,11-tetraoxo-9-(3-((1,4,5,6-tetrahydropyrimidin-2-yl)amino)propyl)-1,4,7,10-tetraazacyclotetradecan-12-yl)isobutyramide] (Isobutyryl-[dαMeDab][Arg(Nω,Nω'-propylene)][Abu][dCha]; lactam 1-C)",0.88
6,"CC[C@@H]1NC(=O)[C@H](CCCN2CCN(C)CC2)NC(=O)[C@](C)(NC(=O)C(C)C)CCNC(=O)[C@@H](CC2CCCCC2)NC1=O [Cpd. No. 43, N-((3R,6S,9S,12R)-3-(cyclohexylmethyl)-6-ethyl-12-methyl-9-(3-(4-methylpiperazin-1-yl)propyl)-2,5,8,11-tetraoxo-1,4,7,10-tetraazacyclotetradecan-12-yl)isobutyramide]",> 10
7,"CCNC(=N)NCCC[C@@H]1NC(=O)[C@](C)(NC(=O)C(C)C)CCNC(=O)[C@@H](CC2CCCCC2)NC(=O)[C@H](CC)NC1=O [Cpd. No. 45, N-((3R,6S,9S,12R)-3-(cyclohexylmethyl)-6-ethyl-9-(3-(3-ethylguanidino)propyl)-12-methyl-2,5,8,11-tetraoxo-1,4,7,10-tetraazacyclotetradecan-12-yl)isobutyramide] (Isobutyryl-[dαMeDab][Arg(Et)][Abu][dCha]; lactam 1-C)",3.4
8,"CCCNC(=N)NCCC[C@@H]1NC(=O)[C@](C)(NC(=O)C(C)C)CCNC(=O)[C@@H](CC2CCCCC2)NC(=O)[C@H](CC)NC1=O [Cpd. No. 46, N-((3R,6S,9S,12R)-3-(cyclohexylmethyl)-6-ethyl-12-methyl-2,5,8,11-tetraoxo-9-(3-(3-propylguanidino)propyl)-1,4,7,10-tetraazacyclotetradecan-12-yl)isobutyramide] (Isobutyryl-[dαMeDab][Arg(ω-nPr)][Abu][dCha]; lactam 1-C)",> 10
9,"CCCCNC(=N)NCCC[C@@H]1NC(=O)[C@](C)(NC(=O)C(C)C)CCNC(=O)[C@@H](CC2CCCCC2)NC(=O)[C@H](CC)NC1=O [Cpd. No. 47, N-((3R,6S,9S,12R)-9-(3-(3-butylguanidino)propyl)-3-(cyclohexylmethyl)-6-ethyl-12-methyl-2,5,8,11-tetraoxo-1,4,7,10-tetraazacyclotetradecan-12-yl)isobutyramide]",> 10
10,"CC[C@@H]1NC(=O)[C@H](CCCNC(=N)N)NC(=O)[C@](C)(NC(=O)C(C)C)CCNC(=O)[C@@H](C2CCCC2)NC1=O [Cpd. No. 50, N-((3R,6S,9S,12R)-3-cyclopentyl-6-ethyl-9-(3-guanidinopropyl)-12-methyl-2,5,8,11-tetraoxo-1,4,7,10-tetraazacyclotetradecan-12-yl)isobutyramide] (Isobutyryl-[dαMeDab]R[Abu][dGly(cPent)]; lactam 1-C)",1.19
11,"CC[C@@H]1NC(=O)[C@H](CCCNC(=N)N)NC(=O)[C@](C)(NC(=O)C(C)C)CCNC(=O)[C@@H](C2CCCCC2)NC1=O [Cpd. No. 51, N-((3R,6S,9S,12R)-3-cyclohexyl-6-ethyl-9-(3-guanidinopropyl)-12-methyl-2,5,8,11-tetraoxo-1,4,7,10-tetraazacyclotetradecan-12-yl)isobutyramide] (Isobutyryl-[dαMeDab]R[Abu][dChg]; lactam 1-C)",0.64
12,"CC[C@@H]1NC(=O)[C@H](CCCNC(=N)N)NC(=O)[C@](C)(NC(=O)C(C)C)CCNC(=O)[C@@H](CC2CCCCC2)NC1=O [Cpd. No. 52, N-((3R,6S,9S,12R)-3-(cyclohexylmethyl)-6-ethyl-9-(3-guanidinopropyl)-12-methyl-2,5,8,11-tetraoxo-1,4,7,10-tetraazacyclotetradecan-12-yl)isobutyramide] (Isobutyryl-[dαMeDab]R[Abu][dCha]; lactam 1-C)",1.49
13,"CC[C@@H]1NC(=O)[C@H](CCCNC(=N)N)NC(=O)[C@](C)(NC(=O)C(C)C)CCNC(=O)[C@@H](Cc2ccccc2F)NC1=O [Cpd. No. 55, N-((3R,6S,9S,12R)-6-ethyl-3-(2-fluorobenzyl)-9-(3-guanidinopropyl)-12-methyl-2,5,8,11-tetraoxo-1,4,7,10-tetraazacyclotetradecan-12-yl)isobutyramide] (Isobutyryl-[dαMeDab]R[Abu][dPhe(2-F)]; lactam 1-C)",3.59
14,"CC[C@@H]1NC(=O)[C@H](CCCNC(=N)N)NC(=O)[C@](C)(NC(=O)C(C)C)CCNC(=O)[C@@H](Cc2cccc(F)c2)NC1=O [Cpd. No. 56, N-((3R,6S,9S,12R)-6-ethyl-3-(3-fluorobenzyl)-9-(3-guanidinopropyl)-12-methyl-2,5,8,11-tetraoxo-1,4,7,10-tetraazacyclotetradecan-12-yl)isobutyramide] (Isobutyryl-[dαMeDab]R[Abu][dPhe(3-F)]; lactam 1-C)",1.29
15,"CC[C@@H]1NC(=O)[C@H](CCCNC(=N)N)NC(=O)[C@](C)(NC(=O)C(C)C)CCNC(=O)[C@@H](Cc2ccc(F)cc2)NC1=O [Cpd. No. 57, N-((3R,6S,9S,12R)-6-ethyl-3-(4-fluorobenzyl)-9-(3-guanidinopropyl)-12-methyl-2,5,8,11-tetraoxo-1,4,7,10-tetraazacyclotetradecan-12-yl)isobutyramide] (Isobutyryl-[dαMeDab]R[Abu][dPhe(4-F)]; lactam 1-C)",6.51
16,"CC[C@@H]1NC(=O)[C@H](CCCNC(=N)N)NC(=O)[C@](C)(NC(=O)C(C)C)CCNC(=O)[C@@H](Cc2cccc3ccccc23)NC1=O [Cpd. No. 58, N-((3R,6S,9S,12R)-6-ethyl-9-(3-guanidinopropyl)-12-methyl-3-(naphthalen-1-ylmethyl)-2,5,8,11-tetraoxo-1,4,7,10-tetraazacyclotetradecan-12-yl)isobutyramide] (Isobutyryl-[dαMeDab]R[Abu][d1Nal]; lactam 1-C)",2.37
17,"CC[C@@H]1NC(=O)[C@H](CCCNC(=N)N)NC(=O)[C@](C)(NC(=O)C(C)C)CCNC(=O)[C@@](C)(c2ccccc2)NC1=O [Cpd. No. 78, N-((3R,6S,9S,12R)-6-ethyl-9-(3-guanidinopropyl)-3,12-dimethyl-2,5,8,11-tetraoxo-3-phenyl-1,4,7,10-tetraazacyclotetradecan-12-yl)isobutyramide]",> 10

# Same assay, conditions: Homo sapiens, MOLM-13, 96 h; Table 2A; 4 days treatment; read-out: MOLM-13 IC50
row,pIC50,SMILES
1,< 5.00,"CC[C@@H]1NC(=O)[C@H](CCCNC(=N)N[N+](=O)[O-])NC(=O)[C@](C)(NC(=O)C(C)C)CCNC(=O)[C@@H](CC2CCCCC2)NC1=O [Cpd. No. 32, N-((3R,6S,9S,12R)-3-(cyclohexylmethyl)-6-ethyl-12-methyl-9-(3-(3-nitroguanidino)propyl)-2,5,8,11-tetraoxo-1,4,7,10-tetraazacyclotetradecan-12-yl)isobutyramide] (Isobutyryl-[dαMeDab][Arg(NO2)][Abu][dCha]; lactam 1-C)"
2,5.76,"CC[C@@H]1NC(=O)[C@H](CCCNC(=N)N)NC(=O)[C@](C)(NC(=O)C(C)C)CCNC(=O)[C@@H](C)NC1=O [Cpd. No. 48, N-((3R,6S,9S,12R)-6-ethyl-9-(3-guanidinopropyl)-3,12-dimethyl-2,5,8,11-tetraoxo-1,4,7,10-tetraazacyclotetradecan-12-yl)isobutyramide] (Isobutyryl-[dαMeDab]R[Abu][dA]; lactam 1-C)"
3,5.73,"CC[C@@H]1NC(=O)[C@H](CCCNC(=N)N)NC(=O)[C@](C)(NC(=O)C(C)C)CCNC(=O)[C@@H](CC(C)C)NC1=O [Cpd. No. 49, N-((3R,6S,9S,12R)-6-ethyl-9-(3-guanidinopropyl)-3-isobutyl-12-methyl-2,5,8,11-tetraoxo-1,4,7,10-tetraazacyclotetradecan-12-yl)isobutyramide] (Isobutyryl-[dαMeDab]R[Abu][dL]; lactam 1-C)"
4,5.80,"CC[C@@H]1NC(=O)[C@H](CCCNC(=N)N)NC(=O)[C@](C)(NC(=O)C(C)C)CCNC(=O)[C@@H](Cc2ccccc2)NC1=O [Cpd. No. 54, N-((3R,6S,9S,12R)-3-benzyl-6-ethyl-9-(3-guanidinopropyl)-12-methyl-2,5,8,11-tetraoxo-1,4,7,10-tetraazacyclotetradecan-12-yl)isobutyramide] (Isobutyryl-[dαMeDab]R[Abu][dF]; lactam 1-C)"
